Counter-ions that a name gives are not always drawn.
Experiments:
[1] = human, in vivo
Protocol: Twenty-four healthy volunteers (14 females and 10 males), aged 20–55 years, received each of the four treatments. […] Standard pharmacokinetic parameters were calculated, including maximum plasma concentrations over the entire sampling phase (Cmax), time to attain maximal plasma concentrations (Tmax), and area under the plasma concentration-time curve (AUCI-time 0 to infinity).

[2] = cited from earlier work; for half-life: pharmacokinetic half-life; for time of peak plasma concentrations: after oral dosing, normal subjects
migraine patients = test: Earlier phase II study of metoclopramide on pain variables; format: in vivo, human
[3] = naproxen sodium: water of neutral pH; cited from earlier work

## COc1ccc2cc([C@H](C)C(=O)O)ccc2c1 [naproxen]
[1]
  tolerability: well tolerated

## O=C(O)CCc1nc(-c2ccccc2)c(-c2ccccc2)o1 [oxaprozin]
[2]
  half-life: 42 to 50 h

## CC(=O)Oc1ccccc1C(=O)O [aspirin]
[2]
  time of peak plasma concentrations: about 1 hour
[2]; in vivo
  plasma half life: very short

## Cc1ccc(Cl)c(Nc2ccccc2C(=O)O)c1Cl [meclofenamate]
[2]; in vivo
  time to peak plasma levels: 0.5 to 1 h

## CCc1cccc2c3c([nH]c12)C(CC)(CC(=O)O)OCC3 (stereo not shown) [etodolac]
[2]
  half-life: about 7 hours

## Cc1cccc(Nc2ccccc2C(=O)O)c1C [mefenamic acid]
[2]
  half-life: up to 4 hours

## O=C(c1ccccc1)c1ccc2n1CCC2C(=O)O (stereo not shown) [ketorolac]
[2]
  half-life: 8 to 9 h

## Cc1ccc(-c2cc(C(F)(F)F)nn2-c2ccc(S(N)(=O)=O)cc2)cc1 [celecoxib]
[2]; in vivo
  time to peak plasma levels: approximately 3 hours
[2]
  half-life: approximately 11 hours

## CC(C(=O)O)c1ccc(-c2ccccc2)c(F)c1 (stereo not shown) [flurbiprofen]
[2]
  half-life: about 6 hours

## CC(=O)Nc1ccc(O)cc1 [acetaminophen]
[2]
  time of peak plasma concentrations: about 1 hour

## CCN(CC)CCNC(=O)c1cc(Cl)c(N)cc1OC [Metoclopramide hydrochloride, metoclopramide hydrochloride]
Migraine patients
  effect on pain variables: without significant effect
[1]
  tolerability: well tolerated
[3]
  solubility in water: freely soluble

## CC(C(=O)O)c1cccc(C(=O)c2ccccc2)c1 (stereo not shown) [ketoprofen]
[2]; in vivo
  time to peak plasma levels: one-half to 2

Source: US7030162B2, “Treatment of migraine headache” (POZEN Inc., priority 1996, dated 2006)
